ChEMBL document CHEMBL1135859, “Indinavir analogues with blocked metabolism sites as HIV protease inhibitors with improved pharmacological profiles and high potency against PI-resistant viral strains” (Bioorg Med Chem Lett, 2002)

What was measured:
MT4 = assay: Concentration required to inhibit the spread of viral infection in MT-4 human T-lymphoid cells infected by the NL4-3 virus; type: functional; conditions: read-out: CIC95
[1] = biological target: T1, Human immunodeficiency virus type 1 protease (Human immunodeficiency virus 1, UniProt Q72874); assay: Inhibitory concentration required to inhibit cleavage of a substrate by the wild-type HIV-1 Protease
[2] = Maximum concentration was determined; type: ADME, organism-based, Canis lupus familiaris; conditions: dog, in vivo
[3] = tested on: Human immunodeficiency virus 1; assay: Concentration required to control the spread of HIV mutant strain 4X virus; type: functional; conditions: read-out: CIC95
[4] = tested on: Human immunodeficiency virus 1; assay: Concentration required to control the spread of HIV mutant strain V-18C; type: functional; conditions: read-out: CIC95
[5] = Bioavailability in dog; type: ADME, organism-based, Canis lupus familiaris; conditions: in vivo
[6] = Area under curve in dogs; type: ADME, organism-based, Canis lupus familiaris; conditions: dog, in vivo
[7] = Half life in dogs; type: ADME, organism-based, Canis lupus familiaris; conditions: dog, in vivo
[8] = tested on: Human immunodeficiency virus 1; assay: (§1) Concentration required to control the spread of HIV mutant strain WT; type: functional; conditions: read-out: CIC95
[9] = tested on: Human immunodeficiency virus 1; assay: Concentration required to control the spread of HIV mutant strain K-60C; type: functional; conditions: read-out: CIC95
[10] = biological target: T1, Human immunodeficiency virus type 1 protease; assay: Inhibitory concentration required to inhibit cleavage of a substrate by the wild-type HIV-1 protease enzyme
[11] = tested on: Human immunodeficiency virus 1; assay: Concentration required to control the spread of HIV mutant strain Q-60C; type: functional; conditions: read-out: CIC95
[12] = tested on: Human immunodeficiency virus 1; assay: as §1; conditions: Human immunodeficiency virus 1, read-out: CIC95
[13] = Half life was determined; type: ADME, organism-based, Canis lupus familiaris; conditions: dog, in vivo
[14] = Bioavailability; type: ADME, organism-based, Canis lupus familiaris; conditions: dog, in vivo
[15] = Area under curve was determined; type: ADME, organism-based, Canis lupus familiaris; conditions: dog, in vivo

Row | SMILES | IC95 (MT4) | IC50 [1] | Cmax [2] | IC95 [3] | IC95 [4] | bioavailability [5] | AUC [6] | half-life [7] | IC95 [8] | IC95 [9] | IC50 [10] | IC95 [11] | IC95 [12] | half-life [13] | bioavailability [14] | AUC [15]
1 | CC(C)(C)NC(=O)[C@@H]1CN(C(C)(C)c2cccnc2)CCN1C[C@@H](O)C[C@@H](Cc1ccccc1)C(=O)N[C@H]1c2ccccc2C[C@H]1O | 50 nM | 1.16 nM |  |  |  |  |  |  |  |  |  |  |  |  |  | 
2 | CC(C)(C)NC(=O)[C@@H]1CN(C(C)(C)c2cc3cnccc3o2)CCN1C[C@@H](O)C[C@@H](Cc1ccccc1)C(=O)N[C@H]1c2ccccc2OC[C@H]1O | < 8 nM |  | 8.85 µM | 31 nM | 250 nM | 81% | 7.43 µM·h | 62.4 min | < 8 nM | 500 nM | 0.075 nM | 250 nM |  |  |  | 
3 | CC(C)(C)NC(=O)[C@@H]1CN(C(C)(C)c2cc3cnccc3o2)CCN1C[C@@H](O)C[C@@H](Cc1ccccc1)C(=O)N[C@H]1c2ccccc2C[C@H]1O | 15 nM | 0.15 nM | 16.6 µM | 625 nM | > 1000 nM | 44.3% | 14.1 µM·h | 47 min | 15 nM | > 1000 nM |  | > 1000 nM |  |  |  | 
4 | CC(C)(C)NC(=O)[C@@H]1CN(Cc2cc3cnccc3o2)CCN1C[C@@H](O)C[C@@H](Cc1ccccc1)C(=O)N[C@H]1c2ccccc2C[C@H]1O | 15 nM | 0.23 nM |  |  |  |  |  |  |  |  |  |  |  |  |  | 
5 | CC(C)(C)NC(=O)[C@@H]1CN(Cc2cccnc2)CCN1C[C@@H](O)C[C@@H](Cc1ccccc1)C(=O)N[C@H]1c2ccccc2C[C@H]1O.O [INDINAVIR] | 50 nM |  |  | 500 nM | 1500 nM |  |  |  |  | > 3000 nM |  | > 1000 nM | 50.5 nM | 38 min | 71.6% | 12.5 µM·h
